Organism: Rattus norvegicus
Experiment: DrugMatrix - Regimen: Daily Repeat
Format: toxicity, organism-based, Sprague-Dawley
Design: regimen Daily Repeat, gender Male, age 6-8 weeks
Conditions: in vivo, po, […], route oral GAVAGE, dose 1.2 mg/Kg, dose level Low; for ABSOLUTE BASOPHIL / ABSOLUTE EOSINOPHIL / ABSOLUTE LYMPHOCYTE / ABSOLUTE MONOCYTE / ABSOLUTE SEGMENTED NEUTROPHIL / BASOPHIL / EOSINOPHIL / ERYTHROCYTE COUNT / HEMATOCRIT / HEMOGLOBIN / LEUKOCYTE COUNT / LYMPHOCYTE / MEAN CORPUSCULAR HEMOGLOBIN / MEAN CORPUSCULAR HEMOGLOBIN CONCENTRATION / MEAN CORPUSCULAR VOLUME / MONOCYTE / NEUTROPHIL / NUCLEATED RED BLOOD CELLS / PLATELET COUNT: tissue Blood; for ALANINE AMINOTRANSFERASE / ALBUMIN / ALKALINE PHOSPHATASE / ASPARTATE AMINOTRANSFERASE / BLOOD UREA NITROGEN / CARBON DIOXIDE / CHLORIDE / CHOLESTEROL / CREATINE PHOSPHOKINASE / CREATININE / GLUCOSE / LACTATE DEHYDROGENASE / LIPASE / PHOSPHORUS / POTASSIUM / SODIUM / TOTAL BILIRUBIN / TOTAL PROTEIN / URIC ACID: tissue Plasma

CNC(=C[N+](=O)[O-])NCCSCc1csc(CN(C)C)n1 [NIZATIDINE]
ABSOLUTE BASOPHIL (72 h, time 3 day): 0 CELLS/uL | ABSOLUTE EOSINOPHIL (72 h, time 3 day): 34 CELLS/uL | ABSOLUTE LYMPHOCYTE (72 h, time 3 day): 10569 CELLS/uL | ABSOLUTE MONOCYTE (72 h, time 3 day): 72 CELLS/uL | ABSOLUTE SEGMENTED NEUTROPHIL (72 h, time 3 day): 2425 CELLS/uL | BASOPHIL (72 h, time 3 day): 0% | EOSINOPHIL (72 h, time 3 day): 0.33% | ERYTHROCYTE COUNT (72 h, time 3 day): 5.9 x10E6/uL | HEMATOCRIT (72 h, time 3 day): 35.07% | HEMOGLOBIN (72 h, time 3 day): 13.63 G/DL | LEUKOCYTE COUNT (72 h, time 3 day): 13.1 x10E3/uL | LYMPHOCYTE (72 h, time 3 day): 80.33% | MEAN CORPUSCULAR HEMOGLOBIN (72 h, time 3 day): 23.13 pg | MEAN CORPUSCULAR HEMOGLOBIN CONCENTRATION (72 h, time 3 day): 38.87 G/DL | MEAN CORPUSCULAR VOLUME (72 h, time 3 day): 59.5 fL | MONOCYTE (72 h, time 3 day): 0.67% | NEUTROPHIL (72 h, time 3 day): 18.67% | NUCLEATED RED BLOOD CELLS (72 h, time 3 day): 0.67 /100WBC | PLATELET COUNT (72 h, time 3 day): 1288.67 x10E3/uL | ALANINE AMINOTRANSFERASE (72 h, time 3 day): 58.33 u/L | ALBUMIN (72 h, time 3 day): 4.07 G/DL | ALKALINE PHOSPHATASE (72 h, time 3 day): 348.67 u/L | ASPARTATE AMINOTRANSFERASE (72 h, time 3 day): 87.67 u/L | BLOOD UREA NITROGEN (72 h, time 3 day): 12.67 mg/dL | CARBON DIOXIDE (72 h, time 3 day): 26 mmol/L | CHLORIDE (72 h, time 3 day): 101 MEQ/L | CHOLESTEROL (72 h, time 3 day): 72.67 mg/dL | CREATINE PHOSPHOKINASE (72 h, time 3 day): 343.33 u/L | CREATININE (72 h, time 3 day): 0.16 mg/dL | GLUCOSE (72 h, time 3 day): 162.67 mg/dL | LACTATE DEHYDROGENASE (72 h, time 3 day): 208 u/L | LIPASE (72 h, time 3 day): 10 u/L | PHOSPHORUS (72 h, time 3 day): 13.27 mg/dL | POTASSIUM (72 h, time 3 day): 7.68 MEQ/L | SODIUM (72 h, time 3 day): 143.37 MEQ/L | TOTAL BILIRUBIN (72 h, time 3 day): 0.2 mg/dL | TOTAL PROTEIN (72 h, time 3 day): 5.6 G/DL | URIC ACID (72 h, time 3 day): 2 mg/dL | ABSOLUTE BASOPHIL (120 h, time 5 day): 0 CELLS/uL | ABSOLUTE EOSINOPHIL (120 h, time 5 day): 0 CELLS/uL | ABSOLUTE LYMPHOCYTE (120 h, time 5 day): 14620.33 CELLS/uL | ABSOLUTE MONOCYTE (120 h, time 5 day): 0 CELLS/uL | ABSOLUTE SEGMENTED NEUTROPHIL (120 h, time 5 day): 2246.33 CELLS/uL | BASOPHIL (120 h, time 5 day): 0% | EOSINOPHIL (120 h, time 5 day): 0% | ERYTHROCYTE COUNT (120 h, time 5 day): 5.78 x10E6/uL | HEMATOCRIT (120 h, time 5 day): 35.77% | HEMOGLOBIN (120 h, time 5 day): 14.27 G/DL | LEUKOCYTE COUNT (120 h, time 5 day): 16.87 x10E3/uL | LYMPHOCYTE (120 h, time 5 day): 87% | MEAN CORPUSCULAR HEMOGLOBIN (120 h, time 5 day): 24.63 pg | MEAN CORPUSCULAR HEMOGLOBIN CONCENTRATION (120 h, time 5 day): 39.9 G/DL | MEAN CORPUSCULAR VOLUME (120 h, time 5 day): 61.87 fL | MONOCYTE (120 h, time 5 day): 0% | NEUTROPHIL (120 h, time 5 day): 13% | NUCLEATED RED BLOOD CELLS (120 h, time 5 day): 0 /100WBC | PLATELET COUNT (120 h, time 5 day): 1147.67 x10E3/uL | ALANINE AMINOTRANSFERASE (120 h, time 5 day): 54.33 u/L | ALBUMIN (120 h, time 5 day): 4.27 G/DL | ALKALINE PHOSPHATASE (120 h, time 5 day): 454.67 u/L | ASPARTATE AMINOTRANSFERASE (120 h, time 5 day): 86.67 u/L | BLOOD UREA NITROGEN (120 h, time 5 day): 11.67 mg/dL | CARBON DIOXIDE (120 h, time 5 day): 27 mmol/L | CHLORIDE (120 h, time 5 day): 101.33 MEQ/L | CHOLESTEROL (120 h, time 5 day): 63.33 mg/dL | CREATINE PHOSPHOKINASE (120 h, time 5 day): 239.33 u/L | CREATININE (120 h, time 5 day): 0.2 mg/dL | GLUCOSE (120 h, time 5 day): 154 mg/dL | LACTATE DEHYDROGENASE (120 h, time 5 day): 176.67 u/L | LIPASE (120 h, time 5 day): 10 u/L | PHOSPHORUS (120 h, time 5 day): 11.33 mg/dL | POTASSIUM (120 h, time 5 day): 6.56 MEQ/L | SODIUM (120 h, time 5 day): 143.2 MEQ/L | TOTAL BILIRUBIN (120 h, time 5 day): 0.17 mg/dL | TOTAL PROTEIN (120 h, time 5 day): 5.87 G/DL | URIC ACID (120 h, time 5 day): 1.7 mg/dL

Source: ChEMBL document CHEMBL3885881, “DrugMatrix”
